Data from the NIST ThermoML archive (doi:10.1016/j.fluid.2008.04.002).
± gives the expanded uncertainty stated by the source.

Details: Liquid, Closed cell (Static) method

SMILES | vapor or sublimation pressure (263.43 K) [kPa] | vapor or sublimation pressure (273.32 K) [kPa] | vapor or sublimation pressure (283.22 K) [kPa] | vapor or sublimation pressure (288.3 K) [kPa] | vapor or sublimation pressure (293.29 K) [kPa] | vapor or sublimation pressure (313.31 K) [kPa] | vapor or sublimation pressure (333.32 K) [kPa] | vapor or sublimation pressure (353.2 K) [kPa] | vapor or sublimation pressure (253.65 K) [kPa] | vapor or sublimation pressure (258.46 K) [kPa] | vapor or sublimation pressure (263.45 K) [kPa] | vapor or sublimation pressure (268.33 K) [kPa] | vapor or sublimation pressure (273.29 K) [kPa] | vapor or sublimation pressure (278.19 K) [kPa] | vapor or sublimation pressure (283.25 K) [kPa] | vapor or sublimation pressure (288.2 K) [kPa] | vapor or sublimation pressure (290.22 K) [kPa] | vapor or sublimation pressure (291.22 K) [kPa] | vapor or sublimation pressure (292.22 K) [kPa]
FCC(F)(F)F [1,1,1,2-tetrafluoroethane] | 195.7 ± 1 | 287.1 ± 1.2 | 407.2 ± 1.5 | 483.6 ± 1.7 | 566.3 ± 1.9 | 1014.7 ± 3.3 | 1680.4 ± 5.4 | 2636 ± 8.3 | – | – | – | – | – | – | – | – | – | – | –
FC(F)(F)C(F)(F)F [hexafluoroethane] | 1415.3 ± 4.6 | 1862 ± 6 | 2392 ± 7.6 | 2697.6 ± 8.6 | – | – | – | – | 1062.9 ± 2 | 1226.4 ± 2.2 | 1415.3 ± 2.5 | 1621.1 ± 2.8 | 1850 ± 3.2 | 2100.6 ± 3.6 | 2385.8 ± 4.1 | 2697.6 ± 4.6 | 2832.9 ± 4.8 | 2903.4 ± 5 | 2976.2 ± 5.1
